Experimental data as given in publication PMC11116522, “Illuminating the function of the orphan transporter, SLC22A10, in humans and other primates” (Nature Communications, 2024).
Structures can show the parent of a compound that is named as a salt.

What was measured:
[1] = target: T1, chimpanzee SLC22A10 (533 aa) (Pan troglodytes, UniProt A0A2I3TWY5); experiment: radiolabelled uptake in stable HEK293 Flp-In cells, Michaelis-Menten fit; format: cell-based; conditions: 37 °C, 5 min uptake, HBSS; empty-vector uptake subtracted; labelled compound
T1 sequence (A0A2I3TWY5 1-540): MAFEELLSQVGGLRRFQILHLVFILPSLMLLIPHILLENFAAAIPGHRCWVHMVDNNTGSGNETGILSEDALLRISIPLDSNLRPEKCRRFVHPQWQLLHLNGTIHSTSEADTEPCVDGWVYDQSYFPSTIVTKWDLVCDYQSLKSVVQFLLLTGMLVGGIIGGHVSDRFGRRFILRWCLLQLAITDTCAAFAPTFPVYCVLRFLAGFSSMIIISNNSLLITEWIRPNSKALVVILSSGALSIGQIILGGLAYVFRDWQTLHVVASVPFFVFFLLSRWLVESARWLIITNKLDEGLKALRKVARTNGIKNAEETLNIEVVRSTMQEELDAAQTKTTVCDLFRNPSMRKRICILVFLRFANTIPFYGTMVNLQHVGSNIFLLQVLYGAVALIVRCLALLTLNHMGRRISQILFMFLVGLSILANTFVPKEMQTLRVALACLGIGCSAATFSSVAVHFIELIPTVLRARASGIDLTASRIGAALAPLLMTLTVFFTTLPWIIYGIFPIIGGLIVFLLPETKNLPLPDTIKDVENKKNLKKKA

[2] = target: T2, gorilla SLC22A10 (552 aa) (Gorilla gorilla, UniProt G3RG24); experiment: radiolabelled uptake in HEK293 Flp-In cells; format: cell-based; conditions: labelled compound; HBSS
T2 construct: full length 552 aa, synthetic cDNA, HEK293 Flp-In cells
T2 sequence (G3RG24 entry or part of it): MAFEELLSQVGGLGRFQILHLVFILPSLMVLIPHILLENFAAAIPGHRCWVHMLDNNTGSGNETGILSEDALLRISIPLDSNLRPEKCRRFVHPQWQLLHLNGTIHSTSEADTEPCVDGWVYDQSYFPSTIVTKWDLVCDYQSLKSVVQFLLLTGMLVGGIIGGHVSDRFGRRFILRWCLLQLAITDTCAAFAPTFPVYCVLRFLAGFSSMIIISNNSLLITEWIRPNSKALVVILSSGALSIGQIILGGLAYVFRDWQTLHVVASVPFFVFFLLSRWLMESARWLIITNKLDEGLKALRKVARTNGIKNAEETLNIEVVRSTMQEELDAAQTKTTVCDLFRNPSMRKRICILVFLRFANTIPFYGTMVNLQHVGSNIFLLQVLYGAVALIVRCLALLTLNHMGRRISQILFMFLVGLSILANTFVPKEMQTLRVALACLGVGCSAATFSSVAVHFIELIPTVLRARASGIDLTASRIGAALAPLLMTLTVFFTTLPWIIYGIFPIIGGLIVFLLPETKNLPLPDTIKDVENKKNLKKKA

[3] = target: T3, orangutan SLC22A10 (533 aa) (Pongo abelii, UniProt A0A8I5UWR8); experiment: radiolabelled uptake in HEK293 Flp-In cells; format: cell-based; conditions: labelled compound; HBSS
T3 construct: full length 533 aa isoform, synthetic cDNA, HEK293 Flp-In cells
T3 sequence (A0A8I5UWR8 1-533): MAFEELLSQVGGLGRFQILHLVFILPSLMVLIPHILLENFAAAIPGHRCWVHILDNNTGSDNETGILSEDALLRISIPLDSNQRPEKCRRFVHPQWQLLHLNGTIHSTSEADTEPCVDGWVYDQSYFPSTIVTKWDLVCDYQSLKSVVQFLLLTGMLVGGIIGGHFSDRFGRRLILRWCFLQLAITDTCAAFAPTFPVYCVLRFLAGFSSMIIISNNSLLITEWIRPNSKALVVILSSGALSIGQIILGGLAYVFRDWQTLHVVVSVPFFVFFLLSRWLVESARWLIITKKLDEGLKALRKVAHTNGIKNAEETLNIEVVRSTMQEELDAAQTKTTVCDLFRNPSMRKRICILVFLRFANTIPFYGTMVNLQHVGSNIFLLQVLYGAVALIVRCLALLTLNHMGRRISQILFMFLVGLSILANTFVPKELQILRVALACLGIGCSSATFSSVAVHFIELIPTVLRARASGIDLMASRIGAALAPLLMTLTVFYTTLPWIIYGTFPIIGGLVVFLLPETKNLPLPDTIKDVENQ

human SLC22A10 (541 aa) = target: T4, human SLC22A10 (541 aa) (Homo sapiens, UniProt Q63ZE4, P220L); experiment: radiolabelled uptake in transiently transfected HEK293 Flp-In cells; format: cell-based; conditions: labelled compound; HBSS
T4 construct: full length 541 aa, pcDNA3.1(+) or N-terminal eGFP fusion, transient HEK293 Flp-In cells
T4 sequence (Q63ZE4 1-541 P220L): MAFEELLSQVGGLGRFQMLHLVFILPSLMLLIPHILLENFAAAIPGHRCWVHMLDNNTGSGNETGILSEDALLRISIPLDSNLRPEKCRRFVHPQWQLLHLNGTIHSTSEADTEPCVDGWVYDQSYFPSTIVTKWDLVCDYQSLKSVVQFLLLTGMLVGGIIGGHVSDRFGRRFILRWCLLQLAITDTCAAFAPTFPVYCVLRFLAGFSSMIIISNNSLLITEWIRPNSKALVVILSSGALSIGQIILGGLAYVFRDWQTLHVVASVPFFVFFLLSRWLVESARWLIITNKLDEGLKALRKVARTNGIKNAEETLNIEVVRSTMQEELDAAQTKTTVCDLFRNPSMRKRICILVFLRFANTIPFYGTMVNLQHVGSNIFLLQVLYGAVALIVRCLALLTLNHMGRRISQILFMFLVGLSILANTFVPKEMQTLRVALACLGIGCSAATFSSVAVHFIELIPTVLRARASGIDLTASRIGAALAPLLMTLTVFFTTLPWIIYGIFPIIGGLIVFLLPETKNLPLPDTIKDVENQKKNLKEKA

gibbon SLC22A10 (533 aa) = target: T5, gibbon SLC22A10 (533 aa) (Nomascus leucogenys, UniProt G1QWU8); experiment: radiolabelled uptake in HEK293 Flp-In cells; format: cell-based; conditions: labelled compound; HBSS
T5 construct: gene LOC100590002; full length 533 aa isoform, synthetic cDNA, HEK293 Flp-In cells
T5 sequence (G1QWU8 1-533): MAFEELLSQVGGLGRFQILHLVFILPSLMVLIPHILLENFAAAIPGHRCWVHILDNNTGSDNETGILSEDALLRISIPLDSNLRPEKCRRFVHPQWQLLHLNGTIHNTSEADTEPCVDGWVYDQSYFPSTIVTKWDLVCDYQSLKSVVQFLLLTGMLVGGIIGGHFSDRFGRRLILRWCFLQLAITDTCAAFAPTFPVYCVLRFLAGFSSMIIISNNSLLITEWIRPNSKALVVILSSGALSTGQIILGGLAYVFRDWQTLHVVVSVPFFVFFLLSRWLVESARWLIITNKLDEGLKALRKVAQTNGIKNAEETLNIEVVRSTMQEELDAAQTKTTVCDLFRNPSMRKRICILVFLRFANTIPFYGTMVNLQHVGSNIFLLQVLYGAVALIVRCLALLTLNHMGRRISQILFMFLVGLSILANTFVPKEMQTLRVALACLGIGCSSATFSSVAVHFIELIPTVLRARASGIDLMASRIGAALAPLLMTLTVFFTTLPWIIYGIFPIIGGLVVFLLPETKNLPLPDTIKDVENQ

[4] = target: T6, squirrel monkey SLC22A10 (552 aa) (Saimiri boliviensis, UniProt A0A2K6SBP5); experiment: radiolabelled uptake in HEK293 Flp-In cells; format: cell-based; conditions: labelled compound; HBSS
T6 construct: full length 552 aa, synthetic cDNA, HEK293 Flp-In cells
T6 sequence (A0A2K6SBP5 1-552): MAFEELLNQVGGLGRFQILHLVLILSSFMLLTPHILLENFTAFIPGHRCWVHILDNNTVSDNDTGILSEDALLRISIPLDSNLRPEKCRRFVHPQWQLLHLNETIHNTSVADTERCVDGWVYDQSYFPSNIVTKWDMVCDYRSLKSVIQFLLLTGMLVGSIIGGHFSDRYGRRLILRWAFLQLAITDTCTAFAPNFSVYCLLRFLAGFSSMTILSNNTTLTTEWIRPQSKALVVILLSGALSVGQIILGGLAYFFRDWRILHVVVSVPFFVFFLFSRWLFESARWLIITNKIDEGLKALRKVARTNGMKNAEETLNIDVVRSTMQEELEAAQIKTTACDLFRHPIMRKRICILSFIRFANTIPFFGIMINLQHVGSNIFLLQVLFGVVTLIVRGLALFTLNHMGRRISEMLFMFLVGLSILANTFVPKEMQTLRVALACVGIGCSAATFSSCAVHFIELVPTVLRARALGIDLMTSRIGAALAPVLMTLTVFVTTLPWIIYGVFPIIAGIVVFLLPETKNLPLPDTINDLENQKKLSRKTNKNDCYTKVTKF

[5] = substrate: C[C@]12CC[C@@H]3c4ccc(O)cc4CC[C@H]3[C@@H]1CC[C@@H]2O[C@@H]1O[C@H](C(=O)O)[C@@H](O)[C@H](O)[C@H]1O; experiment: radiolabelled uptake in stable HEK293 Flp-In cells, Michaelis-Menten fit; format: cell-based, Pan troglodytes; conditions: 37 °C, 5 min uptake, HBSS, empty-vector uptake subtracted, labelled compound

C[C@]12CC[C@@H]3c4ccc(O)cc4CC[C@H]3[C@@H]1CC[C@@H]2O[C@@H]1O[C@H](C(=O)O)[C@@H](O)[C@H](O)[C@H]1O [estradiol-17β-glucuronide]
Km [1]: 3.28 ± 2.25 µM | fold uptake [2]: Significant accumulation of [^3H]-estradiol-17β-glucuronide and [^3H]-androstanediol-3α-glucuronide were observed in cells expressing | fold uptake [3]: from chimpanzee, orangutan and gibbon accumulated [^3H]-estradiol-17β-glucuronide and [^3H]-folic acid | fold uptake (human SLC22A10 (541 aa)): resulting in substantial accumulation of the substrate, estradiol-17β-glucuronide | fold uptake (gibbon SLC22A10 (533 aa)): from chimpanzee, orangutan and gibbon accumulated [^3H]-estradiol-17β-glucuronide and [^3H]-folic acid

C[C@]12CC[C@@H]3c4ccc(OS(=O)(=O)O)cc4CC[C@H]3[C@@H]1CCC2=O [estrone sulfate]
uptake [4]: squirrel monkey, a New World monkey, preferred estrone sulfate over estradiol-17β- glucuronide

Nc1nc2ncc(CNc3ccc(C(=O)N[C@@H](CCC(=O)O)C(=O)O)cc3)nc2c(=O)[nH]1 [folic acid]
fold uptake [3]: from chimpanzee, orangutan and gibbon accumulated [^3H]-estradiol-17β-glucuronide and [^3H]-folic acid | fold uptake (gibbon SLC22A10 (533 aa)): from chimpanzee, orangutan and gibbon accumulated [^3H]-estradiol-17β-glucuronide and [^3H]-folic acid

B1: chimpanzee SLC22A10 (552 aa) (Pan troglodytes) (protein)
chain: MAFEELLSQVGGLRRFQILHLVFILPSLMLLIPHILLENFAAAIPGHRCWVHMVDNNTGSGNETGILSEDALLRISIPLDSNLRPEKCRRFVHPQWQLLHLNGTIHSTSEADTEPCVDGWVYDQSYFPSTIVTKWDLVCDYQSLKSVVQFLLLTGMLVGGIIGGHVSDRFGRRFILRWCLLQLAITDTCAAFAPTFPVYCVLRFLAGFSSMIIISNNSLLITEWIRPNSKALVVILSSGALSIGQIILGGLAYVFRDWQTLHVVASVPFFVFFLLSRWLVESARWLIITNKLDEGLKALRKVARTNGIKNAEETLNIEVVRSTMQEELDAAQTKTTVCDLFRNPSMRKRICILVFLRFANTIPFYGTMVNLQHVGSNIFLLQVLYGAVALIVRCLALLTLNHMGRRISQILFMFLVGLSILANTFVPKEMQTLRVALACLGIGCSAATFSSVAVHFIELIPTVLRARASGIDLTASRIGAALAPLLMTLTVFFTTLPWIIYGIFPIIGGLIVFLLPETKNLPLPDTIKDVENQKKISRKRHKNDCYTKVTKF
Km [5]: 2.16 ± 0.59 µM
